Key:
[1] = tested on: patients with relapsed or refractory peripheral T-cell lymphoma (R/R PTCL); assay: Expansion phase (PRIMO-EP) of the trial in R/R PTCL: duvelisib 75 mg BID for 2 cycles, then 25 mg BID; format: in vivo, human; settings: for AESI Cutaneous reactions, % / AESI Diarrhea, % / AESI Infections, % / AESI Neutropenia/neutrophil count decreased, % / AESI Pneumonia, % / AESI Pneumonitis, % / AESI Transaminase elevation, % / AESI Colitis, %: all grades
Experimental: An expansion phase of the above trial described in Example 1 was carried out. Based on the dose optimization results, patients in the expansion phase received duvelisib at 75 mg BID for 2 cycles to maximize rapid tumor control, followed by 25 mg BID to maintain long-term disease control and mitigate late toxicities, until progressive disease (PD) or unacceptable toxicity. The primary endpoint was the overall response rates (ORR) as assessed by the Independent Review Committee (IRC), and secondary endpoints included ORR by INV assessment, duration of response (DOR), progression free survival (PFS), overall survival (OS), disease control rate (DCR), and safety. […] Analysis was performed on data collected from a total of 101 patients with a median follow-up of 8.7 months from time of first response. All patients had pathologically confirmed PTCL (WHO criteria) with a CD4 lymphocyte count of ≥50/mm^3 and received ≥2 cycles of ≥1 prior standard regimen. Prior treatments received included CHOP/R-CHOP, CHOEP/EPOCH, or BV/BV-chemo (all 36.60% r), salvage chemo after CHOP/R-CHOP or CHOEP/EPOCH (37.60), and SCT (21.80). The mean treatment duration was 17.1 weeks, and the median (range) treatment duration was 9.0 (1-79) weeks. Exposure by treatment duration included 43.6% (≤2 cycles), 23.8% (>2-4 cycles), and […] (>4 cycles). The ORR by IRC was […]. In patients with ≥3 prior lines, the ORR was maintained (49.10%).

[2] = tested on: patients with relapsed or refractory peripheral T-cell lymphoma (R/R PTCL); assay: Phase 2 open-label parallel cohort trial of duvelisib in R/R PTCL, dose-optimization phase (25 mg BID vs 75 mg BID); format: in vivo, human; settings: for overall response rate (ORR): 28-day cycles, oral
Experimental: Prior to the present disclosure, Applicant ran a clinical trial using duvelisib to treat PTCL. The trial included two cohorts. In cohort 1, subjects were orally administered duvelisib at a starting dose of 25 mg twice daily (BID), with potential escalation on a per-patient basis to 50 mg BID and then 75 mg BID, based on the patient's response to and tolerance of therapy. Doses were administered in 28-day cycles. In cohort 2, subjects were orally administered 75 mg duvelisib BID, in 28-day cycles. The overall response rate (ORR) in the 75 mg BID cohort was 54% ORR.
A phase 2, open-label, multi-center, parallel cohort trial of duvelisib in R/R PTCL was carried out. Patients were treated with duvelisib for two 28-day cycles with either 25 mg BID (DUV25) or 75 mg BID (DUV75). Patients with pathologically confirmed R/R PTCL (WHO criteria) after ≥2 cycles of ≥1 prior standard regimen, and a CD4 lymphocyte count of ≥50/mm^3 were eligible for enrollment in the study.

[3] = Prior Salvage Chemotherapy CHOP/R-CHOP or CHOEP/EPOCH
[4] = all causality, 1 prior regimen (N = 26)
[5] = all causality, 2 prior regimens (N = 22)
[6] = all causality, 3+ prior regimens (N = 53)
[7] = all causality, Tx Duration >2-4 cycles (N = 56)
[8] = all causality, Tx Duration >4 cycles (N = 31)
[9] = all causality, Tx Duration ≤2 cycles (N = 101)

Compound: C[C@H](Nc1ncnc2[nH]cnc12)c1cc2cccc(Cl)c2c(=O)n1-c1ccccc1 [duvelisib, (S)-3-(1-((9H-purin-6-yl)amino)ethyl)-8-chloro-2-phenylisoquinolin-1(2H)-one]
- Response (CR + PR) by number of prior regimens ([1]; 1 prior regimen (n = 26)): 34.6%
- Response (CR + PR) by number of prior regimens ([1]; 2 prior regimens (n = 22)): 63.6%
- Response (CR + PR) by number of prior regimens ([1]; 3+ prior regimens (n = 53)): 49.1%
- TEAEs leading to dose hold ([1]; % of patients): 37.6%
- TEAEs leading to dose reduction ([1]; % of patients): 3.0%
- diarrhea ([1]; AE, all causality, maximum GR3): 7.9%
- increased alanine aminotransferase (ALT) ([1]; AE, all causality, maximum GR3): 14.9%
- increased aspartate aminotransferase (AST) ([1]; AE, all causality, maximum GR3): 13.4%
- neutropenia ([1]; AE, all causality, maximum GR3): 13.8%
- rash maculo-papular ([1]; AE, all causality, maximum GR3): 7.9%
- increased ALT ([1]; AE, all causality, maximum GR4): 5.9%
- Median (range) PFS ([1]; N = 101): 3.62 (0.03+-17.2+) months
- deaths in TEAEs other than PD (total) ([1]; N = 101): 8
- BOR by prior therapy: CR ([1]; Prior BV or BV-chemo): 32.4 % of subgroup
- BOR by prior therapy: PR ([1]; Prior BV or BV-chemo): 10.8 % of subgroup
- BOR by prior therapy: SD ([1]; Prior BV or BV-chemo): 0 % of subgroup
- BOR by prior therapy: CR ([1]; Prior CHOEP/EPOCH): 27.0 % of subgroup
- BOR by prior therapy: PR ([1]; Prior CHOEP/EPOCH): 27.0 % of subgroup
- BOR by prior therapy: SD ([1]; Prior CHOEP/EPOCH): 0 % of subgroup
- BOR by prior therapy: CR ([1]; Prior CHOP/R-CHOP): 37.8 % of subgroup
- BOR by prior therapy: PR ([1]; Prior CHOP/R-CHOP): 5.4 % of subgroup
- BOR by prior therapy: SD ([1]; Prior CHOP/R-CHOP): 2.7 % of subgroup
- BOR by prior therapy: CR ([1]; Prior SCT): 22.7 % of subgroup
- BOR by prior therapy: PR ([1]; Prior SCT): 27.3 % of subgroup
- BOR by prior therapy: SD ([1]; Prior SCT): 0 % of subgroup
- BOR by prior therapy: CR [1, 3]: 44.7 % of subgroup
- BOR by prior therapy: PR [1, 3]: 7.9 % of subgroup
- BOR by prior therapy: SD [1, 3]: 0 % of subgroup
- AESI Cutaneous reactions, % [1, 4]: (38.5) %
- AESI Diarrhea, % [1, 4]: (15.4) %
- AESI Infections, % [1, 4]: (30.8) %
- AESI Neutropenia/neutrophil count decreased, % [1, 4]: (38.5) %
- AESI Pneumonia, % [1, 4]: (3.8) %
- AESI Pneumonitis, % [1, 4]: (3.8) %
- AESI Transaminase elevation, % [1, 4]: (65.4) %
- AESI Cutaneous reactions, % [1, 5]: (54.5) %
- AESI Diarrhea, % [1, 5]: (27.3) %
- AESI Infections, % [1, 5]: (31.8) %
- AESI Neutropenia/neutrophil count decreased, % [1, 5]: (27.3) %
- AESI Transaminase elevation, % [1, 5]: (40.9) %
- AESI Colitis, % [1, 6]: (1.9) %
- AESI Cutaneous reactions, % [1, 6]: (24.5) %
- AESI Diarrhea, % [1, 6]: (39.6) %
- AESI Infections, % [1, 6]: (49.1) %
- AESI Neutropenia/neutrophil count decreased, % [1, 6]: (32.1) %
- AESI Pneumonia, % [1, 6]: (3.8) %
- AESI Pneumonitis, % [1, 6]: (1.9) %
- AESI Transaminase elevation, % [1, 6]: (34.0) %
- AESI Cutaneous reactions, % [1, 7]: (28.6) %
- AESI Diarrhea, % [1, 7]: (14.3) %
- AESI Infections, % [1, 7]: (16.1) %
- AESI Neutropenia/neutrophil count decreased, % [1, 7]: (14.3) %
- AESI Pneumonitis, % [1, 7]: (1.8) %
- AESI Transaminase elevation, % [1, 7]: (30.4) %
- AESI Colitis, % [1, 8]: (3.2) %
- AESI Cutaneous reactions, % [1, 8]: (22.6) %
- AESI Diarrhea, % [1, 8]: (22.6) %
- AESI Infections, % [1, 8]: (32.3) %
- AESI Neutropenia/neutrophil count decreased, % [1, 8]: (25.8) %
- AESI Pneumonia, % [1, 8]: (3.2) %
- AESI Cutaneous reactions, % [1, 9]: (19.8) %
- AESI Diarrhea, % [1, 9]: (19.8) %
- AESI Infections, % [1, 9]: (26.7) %
- AESI Neutropenia/neutrophil count decreased, % [1, 9]: (28.7) %
- AESI Pneumonia, % [1, 9]: (2.0) %
- AESI Pneumonitis, % [1, 9]: (1.0) %
- response rates regardless of number of prior regimens ([1]; all prior-regimen subgroups): ≥ 35%
- Median duration of response ([1]; all responders): 7.7 months
- increase of rate of cutaneous reactions ([1]; from Cycle ≤2 to Cycle >4): 2.8%
- increase of rate of diarrhea ([1]; from Cycle ≤2 to Cycle >4): 2.8%
- increase of rate of infections ([1]; from Cycle ≤2 to Cycle >4): 5.6%
- tolerability ([1]; interim results of the expansion phase): well tolerated
- Incidence of pneumonia, pneumonitis, and colitis ([1]; regardless of treatment duration, Cycle ≤2 to Cycle >4): 0-3.2%
- Median duration of response ([1]; those in CR): 7.4 months
- overall response rate (ORR) ([2]; 25 mg BID cohort (N=20)): 35%
- patients with disease progression, 25 mg BID cohort compared to 75 mg BID ([2]; 25 mg BID cohort vs 75 mg BID cohort): three times as many patients experienced disease progression
- overall response rate (ORR) ([2]; 75 mg BID cohort (N=13)): 54%
- Discontinuations due to AEs ([2]; DUV25, 25 mg BID): 30%
- TEAEs leading to discontinuation ([2]; DUV25, 25 mg BID): disease progression, pneumonitis (2 patients each), cardiac arrest, hypercalcemia, hyperglycemia, pneumonia, rash maculopapular, and respiratory failure (1 each)
- fatal AEs (number) ([2]; DUV25, 25 mg BID): 5
- Serious TEAEs occurred in ([2]; DUV25, 25 mg BID (n=15/20)): 75%
- Discontinuations due to AEs ([2]; DUV75, 75 mg BID): 8%
- TEAEs leading to discontinuation ([2]; DUV75, 75 mg BID): disease progression, infectious colitis, and sepsis (1 each)
- fatal AEs (number) ([2]; DUV75, 75 mg BID (disease progression)): 1
- Serious TEAEs occurred in ([2]; DUV75, 75 mg BID (n=9/13)): 69%
- manageability of most TEAEs ([2]; both cohorts): manageable with dose reductions and dose holds
- Serious TEAEs in ≥2 patients ([2]; both cohorts (N=33)): colitis, diarrhea, abdominal pain, pyrexia, PD, sepsis, pneumonia, hyponatremia, rash maculopapular, dyspnea, and respiratory failure

— patent US20250032499A1, “METHODS OF TREATING PERIPHERAL T-CELL LYMPHOMA” (Secura Bio, Inc., priority 2021, published 2025)
